Legend:
Type in all cases: biochemical
[1] = target: T1, Ubiquitin C-terminal Hydrolase L1 (UCHL1) (Homo sapiens, UniProt P09936); test: inhibition IC50 of UCHL1
T1 sequence (P09936 1-220): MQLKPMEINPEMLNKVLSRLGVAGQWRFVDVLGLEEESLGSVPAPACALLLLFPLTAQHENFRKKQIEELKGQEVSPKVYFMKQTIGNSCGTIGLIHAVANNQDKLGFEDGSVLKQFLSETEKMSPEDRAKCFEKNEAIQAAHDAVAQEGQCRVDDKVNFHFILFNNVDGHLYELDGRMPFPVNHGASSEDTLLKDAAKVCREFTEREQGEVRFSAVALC

UCHL3 [2] = target: T2, UCHL3 (Homo sapiens, UniProt P15374); test: Ub-Rho cleavage assay, purified enzyme
T2 sequence (P15374 1-230): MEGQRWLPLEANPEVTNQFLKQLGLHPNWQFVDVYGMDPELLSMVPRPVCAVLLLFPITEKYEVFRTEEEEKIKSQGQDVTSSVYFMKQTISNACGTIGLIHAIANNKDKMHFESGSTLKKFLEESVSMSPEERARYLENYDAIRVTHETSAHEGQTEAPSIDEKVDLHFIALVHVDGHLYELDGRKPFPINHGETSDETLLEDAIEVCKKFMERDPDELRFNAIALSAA

UCHL3 [3] = target: T2, UCHL3; test: Ub-Rho cleavage assay, purified enzyme, […] min preincubation

Compound | IC50 [1] [µM] | IC50 (UCHL3 [2]) [µM] | IC50 (UCHL3 [3]) [µM]
C#CCCn1cc(-c2cccc3c2CCN3C(=O)[C@@H]2CCCN2C#N)c(C(F)(F)F)n1 [compound 2, (S)-2-(4-(1-(but-3-yn-1-yl)-3-(trifluoromethyl)-1H-pyrazol-4-yl)indoline-1-carbonyl)pyrrolidine-1-carbonitrile] | 6.4 | 5.5 | –
N#CN1CCC[C@H]1C(=O)N1CCc2c(-c3cn[nH]c3C(F)(F)F)cccc21 [compound 1, (S)-2-(4-(5-(trifluoromethyl)-1H-pyrazol-4-yl)indoline-1-carbonyl)pyrrolidine-1-carbonitrile] | – | – | 6.4

Source: publication PMC7042063 (Chembiochem : a European journal of chemical biology, 2019)
